Converted amounts (≈) assume the structure as drawn.
What was measured:
[1] = biological target: human ether-a-go-go related gene (hERG) receptor (Homo sapiens, UniProt Q12809); assay: hERG interaction (safety pharmacology); conditions: measured concentration of 70 nM (n=2)
[2] = Solubility of ganaxolone; conditions: for solubility: organic solvent or mixture
[3] = Excretion of radioactivity; conditions: all species
[4] = 1-year (chronic oral) dog toxicity study; conditions: dog, in vivo, oral, 15 mg/kg/day
[5] = system: dogs; assay: 1-year (chronic oral) dog toxicity study
[6] = system: cytochrome P450 (CYP) isoenzymes 1A1/2 and 2B1/2; assay: Induction of cytochrome P450 isoenzymes in rats; conditions: female rats but not males
[7] = system: subjects; assay: All completed placebo-controlled clinical studies of ganaxolone: adverse events; assay type: in vivo, human
Experimental: As of Oct. 10, 2017, 1557 unique subjects have received ganaxolone ranging in duration from 1 day to more than 2 years using doses from 50 to 2000 mg/day in completed studies. Of these subjects, 1527 subjects received oral ganaxolone and 30 subjects received intravenous (IV ganaxolone).
In 20 completed Phase 1 studies, 319 healthy subjects received ganaxolone oral doses of 50 to 2,000 mg/day for periods of up to 2 weeks or IV bolus doses ranging from 10 to 30 mg over durations of 2 minutes to 1 hour or a bolus dose of 6 mg over 5 minutes followed with a continuous infusion of 20 mg per hour for 4 hours.
In the 20 completed Phase 2/3 clinical studies, 1238 unique subjects have received oral ganaxolone in studies of adult subjects with epilepsy, pediatric subjects with seizure disorders, pediatric subjects with FXS, adult subjects with PTSD, and adult subjects with migraine.

[8] = Tissue distribution of [14C]-ganaxolone; conditions: mouse, rat, brain
[9] = human plasma following oral administration; cited from earlier work
[10] = Human pharmacokinetics after oral administration; conditions: in vivo
[11] = system: women with postpartum depression; assay: Mean change in HAM-D score, ganaxolone versus placebo treatment groups; assay type: in vivo, human; conditions: worded as 'in certain embodiments'
From the text: The Hamilton Depression Rating Scale (HAM-D) is a commonly-used semi-structured clinician-rated instrument which assesses the range of symptoms that are most frequently observed in subjects with major depression. HAM-D has undergone a considerable amount of psychometric study and is accepted as a valid standard of symptom outcome assessment in studies of major depression. In the examples disclosed herein HAM-D was scored using the original 17-item HAM-D scale (HAM-D17).
Administration of ganaxolone in accordance with the methods of the present invention may provide a mean change in HAM-D score (i.e., least-squares (LS) mean reduction) at about 6 hours and/or at about 12 hours and/or about 24 hours (about 1 day) and/or about 48 hours (about 2 days) and/or about 60 hours (about 2.5 days) and/or about 72 hours (about 3 days) and/or about 11 days and/or about 30 days and/or about 34 days of from about 2 to about 17. In the preferred embodiments, the mean change in HAM-D score is greater than placebo.
The primary efficacy endpoint is HAM-D17 total score change from baseline to 60 hours post-infusion (on Day 3) for Cohorts 1-3 and to Day 29 for Cohort 6. The primary analysis in each cohort is done using the mITT set. Although the trial is not powered for inferential analysis and there is no consideration for control of type 1 error across multiple cohorts, a clinically meaningful numeric difference in means of 3-4 points, based on mITT analysis, between ganaxalone and placebo treatment groups is considered an indication of acceptable efficacy and is be the most influential outcome in the overall assessment of the efficacy of ganaxolone in treating PPD.

[12] = Mutagenicity
[13] = Example 3 Phase 2 study of oral ganaxolone in women with PPD: expected plasma concentrations; assay type: in vivo, human
Experimental: Approximately 172 women aged 18 to 48 years with PPD are screened, and approximately 88 subjects are enrolled into a Phase 2 clinical study. The enrolled subjects are assigned to five groups.
In the first group, approximately 8 subjects are titrated to a total daily oral dose of 900 mg ganaxolone per day (administered in three divided doses per day) over 10 days, followed by a taper over 4 days. For this group ganaxolone doses are titrated from 225 mg on Day 1 to a total daily oral dose of 900 mg starting on Day 7. The ganaxolone mean trough plasma concentrations during the Days 8, 9, and 10 are predicted to be about 40 ng/ml, based on PK modelling. Bedtime doses are selected to be higher than the daytime doses, and are expected to yield plasma mean peak concentrations up to 180 ng/ml during the night on Days 8, 9 and 10.
In the third group, approximately 20 subjects receive ganaxolone administered orally at a dose of 675 mg QHS for 28 days, followed by a taper over 4 days. The trough ganaxolone levels are expected to be below 40 ng/ml.
In the fourth group, approximately 20 subjects receive orally, on the first 2 days, ganaxolone capsules 675 mg at dinner time and 675 mg at bedtime (for a total of 1,350 mg per day on the first 2 days), followed by 26 days of ganaxolone capsules 1,125 mg at dinner time (high fat diet), and a taper over 4 days. […]

human ether-a-go-go related gene (hERG) receptor, sequence (Q12809 whole entry): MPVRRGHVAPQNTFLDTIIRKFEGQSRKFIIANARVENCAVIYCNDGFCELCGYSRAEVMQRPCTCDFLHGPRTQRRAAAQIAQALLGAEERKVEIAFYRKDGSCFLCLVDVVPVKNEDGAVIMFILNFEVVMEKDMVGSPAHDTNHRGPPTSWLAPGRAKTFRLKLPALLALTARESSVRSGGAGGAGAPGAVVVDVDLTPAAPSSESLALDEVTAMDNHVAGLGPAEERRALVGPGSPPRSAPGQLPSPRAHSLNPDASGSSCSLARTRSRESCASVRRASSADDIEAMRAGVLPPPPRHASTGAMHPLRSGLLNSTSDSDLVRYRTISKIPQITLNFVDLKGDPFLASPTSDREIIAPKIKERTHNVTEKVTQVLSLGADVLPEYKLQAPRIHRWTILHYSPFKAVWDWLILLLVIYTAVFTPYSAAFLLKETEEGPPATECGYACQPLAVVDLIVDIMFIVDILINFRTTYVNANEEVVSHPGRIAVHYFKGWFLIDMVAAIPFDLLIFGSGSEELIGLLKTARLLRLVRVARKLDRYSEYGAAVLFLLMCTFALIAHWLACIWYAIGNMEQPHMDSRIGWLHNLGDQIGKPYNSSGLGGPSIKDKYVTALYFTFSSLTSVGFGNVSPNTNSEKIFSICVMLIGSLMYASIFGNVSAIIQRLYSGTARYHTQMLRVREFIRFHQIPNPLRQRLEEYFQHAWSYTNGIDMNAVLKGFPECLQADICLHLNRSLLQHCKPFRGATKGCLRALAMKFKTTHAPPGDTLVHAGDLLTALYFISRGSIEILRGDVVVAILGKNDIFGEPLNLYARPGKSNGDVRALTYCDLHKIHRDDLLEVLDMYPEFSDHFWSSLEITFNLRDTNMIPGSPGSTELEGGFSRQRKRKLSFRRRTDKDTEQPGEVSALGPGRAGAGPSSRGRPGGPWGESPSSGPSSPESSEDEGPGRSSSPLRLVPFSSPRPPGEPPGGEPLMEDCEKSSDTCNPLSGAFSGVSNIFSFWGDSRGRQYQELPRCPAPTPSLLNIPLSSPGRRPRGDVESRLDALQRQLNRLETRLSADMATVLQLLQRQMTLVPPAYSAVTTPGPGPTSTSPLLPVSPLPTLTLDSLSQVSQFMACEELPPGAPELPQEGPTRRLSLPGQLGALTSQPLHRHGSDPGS

CC(=O)[C@H]1CC[C@H]2[C@@H]3CC[C@H]4C[C@](C)(O)CC[C@]4(C)[C@H]3CC[C@]12C [ganaxolone, 3α-hydroxy-3β-methyl-5α-pregnan-20-one]
Interaction with hERG receptor [1]: did not interact
solubility ([2]; 95% alcohol): 13000 µg/mL (≈ 39.1 mM)
solubility ([2]; polyethylene glycol): 3100 µg/mL (≈ 9.32 mM)
solubility ([2]; propylene glycol): 3500 µg/mL (≈ 10.5 mM)
Concentration dissolved ([2]; using water soluble beta cyclodextrins): > 1000 µg/mL
Solubility in water ([2]; water): insoluble
Excreted radioactivity via faeces [3]: > 70%
Cmax [4]: > 1.5 µg/mL
Findings associated with mean Cmax greater than 1500 ng/mL ([5]; 10 and 15 mg/kg/day): increased weight and total plasma cholesterol levels
ECG / heart rate finding ([5]; after 3 months of dosing, in 4 animals (>190 bpm)): transient sinus tachycardia
Induction of CYP isoenzymes 1A1/2 and 2B1/2 [6]: induces
Incidence of syncope ([7]; 2/993 subjects): 0.2%
Discontinuations due to rash ([7]; 6/993): 0.6%
Subjects with at least 1 treatment emergent adverse event (TEAE) ([7]; 613/993 subjects): 61.7%
Subjects with elevated LFTs (>3×ULN AST and/or ALT) ([7]; Phase 1, 2, and 3 placebo-controlled studies): 0.32%
Events of loss of consciousness ([7]; all placebo-controlled studies): no events of loss of consciousness related to ganaxolone
TEAE dizziness ([7]; human, in vivo): 13.0%
TEAE fatigue ([7]; human, in vivo): 9.7%
TEAE headache ([7]; human, in vivo): 5.5%
TEAE somnolence ([7]; human, in vivo): 22.0%
Kp [8]: ~5
Half-life [9]: approximately 20 hours
Cmax [10]: 0.2 to 0.3 µg/mL
Difference between ganaxolone and placebo treatment groups in mean change in HAM-D score ([11]; 12 hours): 0.7
Difference between ganaxolone and placebo treatment groups in mean change in HAM-D score ([11]; 24 hours): 1.5
Difference between ganaxolone and placebo treatment groups in mean change in HAM-D score ([11]; 48 hours): 5.6
Difference between ganaxolone and placebo treatment groups in mean change in HAM-D score ([11]; 60 hours): 4.2
Difference between ganaxolone and placebo treatment groups in mean change in HAM-D score ([11]; 72 hours): 2.9
Difference between ganaxolone and placebo treatment groups in mean change in HAM-D score ([11]; 11 days): 5.9
Difference between ganaxolone and placebo treatment groups in mean change in HAM-D score ([11]; 34 days): 4.1
Mutagenicity [12]: No potential for mutagenicity was detected
Expected plasma mean peak concentrations during the night ([13]; first group, Days 8, 9 and 10): up to 180 ng/ml
Expected trough ganaxolone levels ([13]; third group: 675 mg QHS orally for 28 days): below 40 ng/ml
